# Assay results: ChEMBL document CHEMBL3632462, “Synthesis and evaluation of phenoxymethylbenzamide analogues as anti-trypanosomal agents” (Medchemcomm, 2015)
# Legend:
# [1] = tested on: Trypanosoma brucei brucei; test: Antitrypanosomal activity against Trypanosoma brucei brucei infected in HEK293 cells assessed as growth inhibition after 72 hrs by Alamar Blue assay; format: functional, organism-based; conditions: HEK293, 72 h
# [2] = Selectivity index, ratio of IC50 for HEK293 cells to IC50 for Trypanosoma brucei brucei infected in HEK293 cells; format: toxicity, cell-based; conditions: human, read-out: Ratio IC50
# [3] = tested on: Leishmania donovani; test: Antiparasitic activity against amastigote form of Leishmania donovani MHOM/ET/67/L82 assessed as growth inhibition after 70 hrs by resazurin dye-based fluorometric analysis; format: functional, organism-based; conditions: MHOM/ET/67/L82, 70 h
# [4] = tested on: Trypanosoma cruzi; test: Antitrypanosomal activity against […] of Trypanosoma cruzi Tulahuen C2C4 infected in rat L6 cells assessed as growth inhibition after 96 hrs by beta-galactosidase reporter gene assay; format: functional, organism-based; conditions: Tulahuen C2C4, L6, 96 h
# [5] = Selectivity index, ratio of IC50 for rat L6 cells to IC50 for bloodstream form of Trypanosoma brucei rhodesiense STIB900; format: toxicity, cell-based; conditions: read-out: Ratio IC50
# [6] = tested on: Plasmodium falciparum; test: Antiparasitic activity against erythrocytic stage of Plasmodium falciparum NF54 assessed as growth inhibition after 48 hrs by [3H]-hypoxanthine incorporation assay; format: functional, organism-based
# [7] = tested on: L6; test: Cytotoxicity against rat L6 cells after 70 hrs by resazurin dye-based fluorometric analysis; format: cell-based; conditions: L6, 70 h
# [8] = tested on: Trypanosoma brucei rhodesiense; test: Antitrypanosomal activity against bloodstream form of Trypanosoma brucei rhodesiense STIB900 assessed as growth inhibition after 70 hrs by resazurin dye-based fluorometric analysis; format: functional, organism-based; conditions: STIB900, 70 h
SMILES,IC50 [1] [µM],selectivity ratio [2],other results
Cc1ccc(OCc2ccc(C(=O)N3CCC(C)CC3)cc2)cc1,> 50,–,–
CCOc1ccc(OCCCCCC(=O)N(C(C)C)C(C)C)cc1,2.03,41,–
CCCCCCCCCCCCCCCCOP(=O)([O-])OCC[N+](C)(C)C [MILTEFOSINE],–,–,IC50 [3]: 0.572 µM
O=C(Cn1ccnc1[N+](=O)[O-])NCc1ccccc1 [BENZNIDAZOLE],–,–,IC50 [4]: 2.33 µM
CCOc1ccc(OCc2ccc(C(=O)N3CCOCC3)cc2)cc1,4.2,20,–
CCOc1ccc(OCCCCCC(=O)N2CCCCC2C)cc1 (stereo not given),1.66,50,–
CCc1ccc(OCc2ccc(C(=O)N3CCN(C)CC3)cc2)cc1,> 50,–,–
CCCc1ccc(OCc2ccc(C(=O)N3CCCC(C)C3)cc2)cc1 (stereo not given),> 50,–,–
COc1ccc(OCc2ccc(C(=O)N3CCC(C)CC3)cc2)cc1,> 50,–,–
CCCc1ccc(OCc2ccc(C(=O)N3CCCCC3C)cc2)cc1 (stereo not given),10,8,–
Cc1ccc(OCc2ccc(C(=O)N3CCCCC3C)cc2)cc1 (stereo not given),9.2,9,–
COc1ccc(OCc2ccc(C(=O)N(C)c3ccccc3)cc2)cc1,18,5,–
CCOc1ccc(NCc2ccc(C(=O)N3CCOCC3)cc2)cc1,20.6,4,–
COc1ccc(OCc2ccc(C(=O)N3CCN(C)CC3)cc2)cc1,> 50,–,–
CCc1ccc(OCc2ccc(C(=O)N3CCC(C)CC3)cc2)cc1,> 50,–,–
CCOc1ccc(OCc2ccc(C(=O)N3CCN(C)CC3)cc2)cc1,> 50,–,–
CCOc1ccc(OCc2ccc(C(=O)NC(C)C)cc2)cc1,> 50,–,–
CCOc1ccc(OCc2ccc(C(=O)O)cc2)cc1,> 50,–,–
CCOc1ccc(OCCCCCC(=O)N2CCCCC2)cc1,7.35,5,–
CCOc1ccc(OCc2ccc(C(=O)N3CCCC(C)C3)cc2)cc1 (stereo not given),1.15,36,selectivity ratio [5]: 190; IC50 [6]: 22.3 µM; IC50 [7]: 186 µM; IC50 [8]: 985 nM; IC50 [3]: 35.7 µM; IC50 [4]: 107 µM
CCOc1ccc(OCc2ccc(C(=O)N3CCC(C)CC3)cc2)cc1,> 50,–,–
CCc1ccc(OCc2ccc(C(=O)N3CCOCC3)cc2)cc1,14.8,6,–
CCOc1ccc(NCc2ccc(C(=O)N3CCCCC3)cc2)cc1,2.9,29,–
